Results: ChEMBL document CHEMBL5053545, “Iterative Structure-Based Optimization of Short Peptides Targeting the Bacterial Sliding Clamp” (J Med Chem, 2021)
The source made the active and inactive calls. No cut-off for these calls is given here. *1 amine or outer side, *2 acyl side, *3 side chain or, on linkers, in order; H or OH if unused. Where a SMILES comes first, the peptide text is derived from it. [ ]: non-standard residue; d: D form. The star is where a group is joined. N(3-imidazol-1-ylpropyl)Gly = O=C(O)CNCCCn1ccnc1; ACHC(1S,2S) = O=C([C@H]1CCCC[C@@H]1N[*:1])[*:2]; Acryloyl(3-(3-pyridyl),E) = O=C(/C=C/c1cccnc1)*; Phe(3,4-Cl2) = N[C@@H](Cc1ccc(Cl)c(Cl)c1)C(=O)O; Acetyl(1-naphthyl) = O=C(Cc1cccc2ccccc12)*; Caffeoyl = O=C(/C=C/c1ccc(O)c(O)c1)*; X6 = O=C([C@@H]1CC(O)CN1[*:1])[*:2]; Hydrocinnamoyl = O=C(CCc1ccccc1)*; NH(4-MeO-phenyl) = COc1ccc(N*)cc1; NMeR = CN[C@@H](CCCNC(=N)N)C(=O)O; X3 = CN(C)/C(=N\CC(=O)*)N1CCOCC1; Cha = N[C@@H](CC1CCCCC1)C(=O)O; NMeD = CN[C@@H](CC(=O)O)C(=O)O; Pip = O=C(O)[C@@H]1CCCCN1; X1 = O=C(/C=C/c1ccccc1)*; CO = O=C([*:1])[*:2]; Sar = CNCC(=O)O

Tests used:
[1] = Binding affinity to Escherichia coli sliding clamp assessed as dissociation constant by ITC analysis
Escherichia coli [2] = experiment: Binding affinity to Escherichia coli sliding clamp assessed as gibbs free energy change by ITC analysis
Escherichia coli [3] = experiment: Binding affinity to Escherichia coli sliding clamp assessed as association rate constant by ITC analysis
Escherichia coli [4] = experiment: Binding affinity to Escherichia coli sliding clamp assessed as dissociation rate constant by ITC analysis
Escherichia coli [5] = experiment: Antimicrobial activity against Escherichia coli D22 at 128 ug/ml incubated 18 to 24 hrs by broth microdilution method; format: functional, organism-based; conditions: dose 128.0 µg/ml, time 18-24 hrs
[6] = Inhibition of SC-dependent DNA replication in Escherichia coli using pU118 DNA as substrate preincubated for 10 mins followed by substrate addition and measured after 6 mins by PAGE electrophoresis

SMILES	Kd [1] [nM]	deltaG (Escherichia coli [2]) [kcal/mol]	K (Escherichia coli [3])	K (Escherichia coli [4])	Activity (Escherichia coli [5])	IC50 [6] [nM]
CC(C)C[C@H](NC(=O)[C@H](CC(=O)O)N(C)C(=O)[C@H](CC1CCCCC1)NC(=O)[C@H](CCC(N)=O)NC(=O)/C=C/c1cccnc1)C(=O)N1CCC[C@H]1C(=O)N[C@@H](Cc1ccccc1)C(=O)O ({Acryloyl(3-(3-pyridyl),E)}-Q[Cha][NMeD]LPF-OH)	35	-10.2	1.4 10^5/M/s	5.2 10^-3/s	inactive	–
CC(=O)N[C@@H](CCC(N)=O)C(=O)N[C@@H](CC1CCCCC1)C(=O)N[C@@H](CC(=O)O)C(=O)N[C@@H](CC(C)C)C(=O)N[C@@H](Cc1ccccc1)C(=O)O (Ac-Q[Cha]DLF-OH)	194	-9.2	4 10^4/M/s	7.4 10^-3/s	–	3200
CC(C)C[C@H](NC(=O)[C@H](CC(=O)O)NC(=O)[C@H](CC1CCCCC1)NC(=O)[C@H](CCC(N)=O)NC(=O)C/N=C(\N(C)C)N1CCOCC1)C(=O)N[C@@H](Cc1ccccc1)C(=O)O (X3-Q[Cha]DLF-OH)	276	-9	3.4 10^4/M/s	1 10^-2/s	–	–
CC(=O)N[C@@H](CCC(N)=O)C(=O)N[C@@H](CC1CCCCC1)C(=O)N[C@@H](CC(=O)O)C(=O)N[C@@H](CC(C)C)C(=O)N(C)CC(=O)N[C@@H](CC(C)C)C(=O)O (Ac-Q[Cha]DL[Sar]L-OH)	583	-8.5	4 10^4/M/s	2.1 10^-2/s	inactive	–
COc1ccc(NC(=O)N[C@@H](CCC(N)=O)C(=O)N[C@@H](CC2CCCCC2)C(=O)N(C)[C@@H](CC(=O)O)C(=O)N[C@@H](CC(C)C)C(=O)N[C@@H](Cc2ccc(Cl)c(Cl)c2)C(=O)O)cc1 ({NH(4-MeO-phenyl)-CO}-Q[Cha][NMeD]L[Phe(3,4-Cl2)]-OH)	266	-9	4.2 10^4/M/s	1.1 10^-3/s	–	–
CC(=O)N[C@@H](CCC(N)=O)C(=O)N[C@@H](CC1CCCCC1)C(=O)N[C@@H](CC(=O)O)C(=O)N[C@@H](CC(C)C)C(=O)N1CCC[C@H]1C(=O)N[C@@H](Cc1ccccc1)C(=O)O (Ac-Q[Cha]DLPF-OH)	81	-9.7	6 10^4/M/s	5 10^-3/s	–	–
CC(=O)N[C@@H](CCC(N)=O)C(=O)N[C@@H](CC1CCCCC1)C(=O)N[C@@H](CC(=O)O)C(=O)N[C@@H](CC(C)C)C(=O)NCC(=O)N[C@@H](CC(C)C)C(=O)O (Ac-Q[Cha]DLGL-OH)	682	-8.4	2.6 10^4/M/s	1.7 10^-2/s	–	–
CC(=O)N[C@@H](CCC(N)=O)C(=O)N[C@@H](CC1CCCCC1)C(=O)N[C@@H](CC(=O)O)C(=O)N[C@@H](CC(C)C)C(=O)N1CCC[C@H]1C(=O)N[C@@H](CC(C)C)C(=O)O (Ac-Q[Cha]DLPL-OH)	182	-9.2	5.7 10^4/M/s	1.1 10^-2/s	–	–
CC(C)C[C@H](NC(=O)[C@H](CC(=O)O)NC(=O)[C@H](CC1CCCCC1)NC(=O)[C@H](CCC(N)=O)NC(=O)Cc1cccc2ccccc12)C(=O)N[C@@H](Cc1ccccc1)C(=O)O ({Acetyl(1-naphthyl)}-Q[Cha]DLF-OH)	89	-9.6	6.5 10^4/M/s	5.7 10^-3/s	–	–
CC(=O)N[C@@H](CCC(N)=O)C(=O)N[C@@H](CC1CCCCC1)C(=O)N[C@@H](CC(=O)O)C(=O)N[C@@H](CC(C)C)C(=O)N[C@H]1CCCC[C@@H]1C(=O)N[C@@H](CC(C)C)C(=O)O (Ac-Q[Cha]DL[ACHC(1S,2S)]L-OH)	4070	-7.4	7.4 10^4/M/s	2.9 10^-2/s	–	–
CC(C)C[C@H](NC(=O)[C@H](CC(=O)O)NC(=O)[C@H](CC1CCCCC1)NC(=O)[C@H](CCC(N)=O)NC(=O)CCc1ccccc1)C(=O)N[C@@H](Cc1ccccc1)C(=O)O (Hydrocinnamoyl-Q[Cha]DLF-OH)	123	-9.1	5.5 10^4/M/s	6.7 10^-3/s	–	–
CC(C)C[C@H](NC(=O)[C@H](CC(=O)O)NC(=O)[C@H](CC1CCCCC1)NC(=O)[C@H](CCC(N)=O)NC(=O)/C=C/c1ccccc1)C(=O)N[C@@H](Cc1ccccc1)C(=O)O (X1-Q[Cha]DLF-OH)	129	-9.4	4.6 10^4/M/s	6.5 10^-3/s	inactive	–
CC(C)C[C@H](NC(=O)[C@H](CC(=O)O)NC(=O)[C@H](CC1CCCCC1)NC(=O)[C@H](CCC(N)=O)NC(=O)/C=C/c1ccc(O)c(O)c1)C(=O)N[C@@H](Cc1ccccc1)C(=O)O (Caffeoyl-Q[Cha]DLF-OH)	99	-9.5	4.6 10^4/M/s	4.7 10^-3/s	–	–
CC(=O)N(C)[C@@H](CCCNC(=N)N)C(=O)N[C@@H](CCC(N)=O)C(=O)N[C@@H](CC1CCCCC1)C(=O)N[C@@H](CC(=O)O)C(=O)N[C@@H](CC(C)C)C(=O)N[C@@H](Cc1ccccc1)C(=O)O (Ac-[NMeR]Q[Cha]DLF-OH)	2130	-7.7	2.1 10^4/M/s	2.9 10^-2/s	–	–
CC(C)C[C@H](NC(=O)[C@H](CC(=O)O)N(C)C(=O)[C@H](CC1CCCCC1)NC(=O)[C@H](CCC(N)=O)NC(=O)/C=C/c1cccnc1)C(=O)N[C@@H](Cc1ccc(Cl)c(Cl)c1)C(=O)O ({Acryloyl(3-(3-pyridyl),E)}-Q[Cha][NMeD]L[Phe(3,4-Cl2)]-OH)	46	-10.1	1.1 10^5/M/s	5.5 10^-3/s	inactive	–
CC(=O)N[C@@H](CCC(N)=O)C(=O)N[C@@H](CC1CCCCC1)C(=O)N(C)[C@@H](CC(=O)O)C(=O)N[C@@H](CC(C)C)C(=O)N1CCC[C@H]1C(=O)N[C@@H](CC(C)C)C(=O)O (Ac-Q[Cha][NMeD]LPL-OH)	263	-9	1 10^5/M/s	2.3 10^-2/s	–	–
CC(C)C[C@H](NC(=O)[C@H](CC(=O)O)NC(=O)[C@H](CC1CCCCC1)NC(=O)[C@H](CCC(N)=O)NC(=O)CNCCCn1ccnc1)C(=O)N[C@@H](Cc1ccccc1)C(=O)O (H-[N(3-imidazol-1-ylpropyl)Gly]Q[Cha]DLF-OH)	312	-8.9	4.2 10^4/M/s	1.1 10^-2/s	–	–
CC(=O)N[C@@H](CCC(N)=O)C(=O)N[C@@H](CC1CCCCC1)C(=O)N(C)[C@@H](CC(=O)O)C(=O)N[C@@H](CC(C)C)C(=O)N[C@@H](Cc1ccccc1)C(=O)O (Ac-Q[Cha][NMeD]LF-OH)	114	-9.5	2.1 10^4/M/s	1.9 10^-2/s	–	–
CC(C)C[C@H](NC(=O)[C@@H]1CCCN1C(=O)[C@H](CC(C)C)NC(=O)[C@H](CC(=O)O)NC(=O)[C@H](CC1CCCCC1)NC(=O)[C@H](CCC(N)=O)NC(=O)/C=C/c1ccccc1)C(=O)O (X1-Q[Cha]DLPL-OH)	132	-9.4	6 10^4/M/s	8 10^-3/s	–	–
COc1ccc(NC(=O)N[C@@H](CCC(N)=O)C(=O)N[C@@H](CC2CCCCC2)C(=O)N[C@@H](CC(=O)O)C(=O)N[C@@H](CC(C)C)C(=O)N[C@@H](Cc2ccccc2)C(=O)O)cc1 ({NH(4-MeO-phenyl)-CO}-Q[Cha]DLF-OH)	73	-9.8	4 10^4/M/s	2.8 10^-3/s	–	–
CC(=O)N[C@@H](CCC(N)=O)C(=O)N[C@@H](CC1CCCCC1)C(=O)N[C@@H](CC(=O)O)C(=O)N[C@@H](CC(C)C)C(=O)N1CC(O)C[C@H]1C(=O)N[C@@H](CC(C)C)C(=O)O (stereo partly drawn) (Ac-Q[Cha]DL[X6]L-OH)	369	-8.8	4.4 10^4/M/s	1.7 10^-2/s	–	–
CC(=O)N[C@@H](CCC(N)=O)C(=O)N[C@@H](CC1CCCCC1)C(=O)N[C@@H](CC(=O)O)C(=O)N[C@@H](CC(C)C)C(=O)N1CCCC[C@H]1C(=O)N[C@@H](CC(C)C)C(=O)O (Ac-Q[Cha]DL[Pip]L-OH)	243	-9	4.3 10^4/M/s	1 10^-2/s	–	–
CC(C)C[C@H](NC(=O)[C@H](CC(=O)O)NC(=O)[C@H](CC1CCCCC1)NC(=O)[C@H](CCC(N)=O)NC(=O)/C=C/c1cccnc1)C(=O)N[C@@H](Cc1ccccc1)C(=O)O ({Acryloyl(3-(3-pyridyl),E)}-Q[Cha]DLF-OH)	156	-9.3	4.6 10^4/M/s	7.4 10^-3/s	inactive	–
CC(=O)N(C)[C@@H](CCCNC(=N)N)C(=O)N[C@@H](CCC(N)=O)C(=O)N[C@@H](CC1CCCCC1)C(=O)N(C)[C@@H](CC(=O)O)C(=O)N[C@@H](CC(C)C)C(=O)N[C@@H](Cc1ccc(Cl)c(Cl)c1)C(=O)O (Ac-[NMeR]Q[Cha][NMeD]L[Phe(3,4-Cl2)]-OH)	92	-9.6	1.1 10^5/M/s	9.4 10^-3/s	–	–
